Measurements: ChEMBL document CHEMBL1770080, “Diamide amino-imidazoles: a novel series of γ-secretase inhibitors for the treatment of Alzheimer's disease” (Bioorg Med Chem Lett, 2011)
Active and inactive are the calls of the source. No cut-off for these calls is given here.

How the values were obtained:
[1] = Inhibition of gamma secretase-mediated notch processing in C57BL/6 mouse fetal thymic organ cultures assessed as reduction of B and T-cell populations after […] by FACS analysis
Cavia porcellus [2] = test: Antialzheimer activity in guinea pig assessed as reduction of total amyloid beta level in brain at 10 mg/kg, sc after 3 hrs by DELFIA-based ELISA; assay type: functional; parameters: scale not given: the % may be the effect or the level left
Mus musculus = species: Mus musculus; test: Antialzheimer activity in heterozygous PDAPP transgenic mouse overexpressing APP V717F mutant assessed as reduction of total amyloid beta level in brain; assay type: functional; settings: read-out: MED
Cavia porcellus [3] = test: Antialzheimer activity in sc dosed guinea pig assessed as reduction of total amyloid beta level in brain after 3 hrs by DELFIA-based ELISA; assay type: functional
Cavia porcellus [4] = test: Antialzheimer activity in guinea pig assessed as reduction of total amyloid beta level in plasma at 1 to 32 mg/kg, sc after 3 hrs by DELFIA-based ELISA; assay type: functional; parameters: scale not given: the % may be the effect or the level left; settings: dose mg/kg 1-32; route subcutaneous
Cavia porcellus [5] = test: Antialzheimer activity in guinea pig assessed as reduction of total amyloid beta level in plasma at 3.2 mg/kg, sc after 3 hrs by DELFIA-based ELISA; assay type: functional, organism-based; parameters: dose 3.2 mg/kg
Cavia porcellus [6] = test: Antialzheimer activity in guinea pig assessed as reduction of total amyloid beta level in plasma at 1 to 32 mg/kg, sc after 1 hr by DELFIA-based ELISA; assay type: functional, organism-based
Cavia porcellus [7] = test: Antialzheimer activity in guinea pig assessed as reduction of total amyloid beta level in brain at 1 to 32 mg/kg, sc after 1 hr by DELFIA-based ELISA; assay type: functional, organism-based
Cavia porcellus [8] = test: Antialzheimer activity in guinea pig assessed as reduction of total amyloid beta level in cerebral spinal fluid at 1 to 32 mg/kg, sc after 1 hr by DELFIA-based ELISA; assay type: functional, organism-based
Cavia porcellus [9] = test: Antialzheimer activity in guinea pig assessed as reduction of total amyloid beta level in plasma at 1 to 32 mg/kg, sc after 3 to 7 hrs by DELFIA-based ELISA; assay type: functional, organism-based
Cavia porcellus [10] = test: Antialzheimer activity in guinea pig assessed as reduction of total amyloid beta level in brain at 1 to 32 mg/kg, sc after 3 to 7 hrs by DELFIA-based ELISA; assay type: functional, organism-based
Cavia porcellus [11] = test: Antialzheimer activity in guinea pig assessed as reduction of total amyloid beta level in cerebral spinal fluid at 1 to 32 mg/kg, sc after 3 to 7 hrs by DELFIA-based ELISA; assay type: functional, organism-based
Cavia porcellus [12] = test: Antialzheimer activity in guinea pig assessed as reduction of total amyloid beta level in brain at 5 mg/kg, sc administered 3 doses over 24 hrs measured after 3 hrs last post dose by DELFIA-based ELISA; assay type: functional; parameters: scale not given: the % may be the effect or the level left; settings: route subcutaneous
[13] = Inhibition of gamma-secretase in guinea pig brain; parameters: species or system Cavia porcellus

CCC[C@H](NC(=O)Cc1cc(F)cc(F)c1)C(=O)Nc1cn(C(C)(C)CN2CCOCC2)cn1
EC50 [1]: 100 nM

CCC[C@H](NC(=O)Cc1cc(F)cc(F)c1)C(=O)Nc1cn(C(C)(C)CC(=O)OC)cn1
Activity (Cavia porcellus [2]; route subcutaneous): 32%

CCC[C@H](NC(=O)Cc1cc(F)cc(F)c1)C(=O)Nc1cn(C(C)(C)CNC(C)C)cn1
EC50 [1]: > 10000 nM

C[C@H](NC(=O)Cc1cc(F)cc(F)c1)C(=O)N[C@H](C(=O)OC(C)(C)C)c1ccccc1
minimal effective dose (Mus musculus): 30 mg/kg

CCC[C@H](NC(=O)Cc1cc(F)cc(F)c1)C(=O)Nc1cn(C(C)(C)CN2CCCC2)cn1
Activity (Cavia porcellus [2]; route subcutaneous): 43%

CCC[C@H](NC(=O)Cc1cc(F)cc(F)c1)C(=O)Nc1cn(C(C)(C)CNCC(C)(C)C)cn1
EC50 [1]: 1200 nM
ED50 (Cavia porcellus [3]): 7.3 mg/kg
Activity (Cavia porcellus [4]): 60%
Activity (Cavia porcellus [5]): Active
Activity (Cavia porcellus [6]): Active
Activity (Cavia porcellus [7]): Active
Activity (Cavia porcellus [8]): inactive
Activity (Cavia porcellus [9]): Active
Activity (Cavia porcellus [10]): Active
Activity (Cavia porcellus [11]): Active
Activity (Cavia porcellus [12]): 50%
IC50 [13]: 24 nM

CC(C)C[C@H](NC(=O)Cc1cc(F)cc(F)c1)C(=O)Nc1cn(C(C)(C)CN2CCCC2)cn1
Activity (Cavia porcellus [2]): inactive

CCC[C@H](NC(=O)Cc1cc(F)cc(F)c1)C(=O)Nc1cn(C(C)(C)CNC2CCC(O)CC2)cn1 (some centres undefined)
EC50 [1]: > 10000 nM

C[C@H](NC(=O)Cc1cc(F)cc(F)c1)C(=O)Nc1cn(C(C)(C)CN2CCCC2)cn1
Activity (Cavia porcellus [2]): inactive

CCC[C@H](NC(=O)Cc1cc(F)cc(F)c1)C(=O)Nc1cn(C(C)(C)CN(C)C)cn1
EC50 [1]: 700 nM

CCC[C@H](NC(=O)Cc1cc(F)cc(F)c1)C(=O)Nc1cn(C(C)(C)CNCc2ccccc2)cn1
EC50 [1]: 4300 nM

CCC[C@H](NC(=O)Cc1cc(F)cc(F)c1)C(=O)Nc1cn(C(C)(C)CNCC2CCOCC2)cn1
EC50 [1]: 4000 nM

CCC[C@H](NC(=O)Cc1cc(F)cc(F)c1)C(=O)Nc1cn(C(CC)CC)cn1
Activity (Cavia porcellus [2]; route subcutaneous): <10%
